Data reported in USRE48461E1, “Modulation of androgen receptor expression” (Ionis Pharmaceuticals, Inc., priority 2012, dated 2021).

How the values were obtained:
Format in all cases: cell-based, human
[1] = tested on: prostate-specific antigen (PSA) mRNA; experiment: Time-course PSA expression in C4-2B cells
Experimental: C4-2B cells were plated at 1,000 cells per well in complete medium. […] ISIS 549148 was included as a negative control. […] After a treatment period of 8 hours, 24 hours, and 48 hours, AR expression was measured with primer probe set hAR-LTS00943. Results are presented in Tables 70-72 as percent expression of AR, relative to non-treated cells.
Expression analysis of prostate-specific antigen (PSA) and TMPRSS2 were also analyzed. Results are presented in Tables 73-75 as percent inhibition of PSA expression and Tables 76-78 as percent inhibition of TMPRSS2 expression, relative to non-treated cells.

AR mRNA = experiment: AR RNA expression in C4-2 cells (complete, CSS+DHT medium); conditions: 48 hrs; for Percent expression of AR: C4-2 cells, CSS + DHT medium
Experimental: Cells were plated at 1,000 cells per well. […] After an incubation period of 48 hrs, RNA levels of AR, PSA and TMPRSS2 were measured.
Cells were plated at 2,000 cells per well and cultured in CSS media with 1 nM DHT. […] After an incubation period of 48 hrs, RNA levels of AR, PSA and TMPRSS2 were measured.

VCaP cells = experiment: VCaP apoptosis (Caspase-Glo 3/7); conditions: complete medium, 72 hours; for Apoptosis (% untreated control): VCaP cells
Experimental: After a treatment period of 72 hours in complete medium, apoptosis of the cancer cells was measured with Caspase-Glo 3/7 assay (Promega). Results are presented in Tables 117 and 118 as percent apoptosis of the cells, relative to non-treated cells.

AR V7 variant mRNA = experiment: AR V7 variant RNA in VCaP cells; conditions: RNAiMax, 48 hrs
Experimental: Cells were plated at 10,000 cells per well. […] ISIS 549148 was included as a negative control. After an incubation period of 48 hrs, RNA levels of full length AR, the V7 variant, PSA and TMPRSS2 were measured.
A separate set of cells was treated with MDV-3100 at 0.04 μM, 0.2 μM, 1.0 μM, or 5.0 μM. After an incubation period of 48 hrs, RNA levels of full length AR, the V7 variant, PSA and TMPRSS2 were measured. The data is presented in Tables 108 expressed as percent expression of gene levels compared to the untreated control.
Cells were plated at 15,000 cells per well and cultured in CSS media for 16 hours. […] ISIS 549148 was included as a negative control. After 4 hrs, 1 nM DHT was added. […] After an incubation period of 48 hrs, RNA levels of AR, PSA and TMPRSS2 were measured. […]

PSA mRNA = experiment: PSA expression in 22RV1 cells; conditions: RNAiMax, 48 hrs
Experimental: Cells were plated at 1,000 cells per well. […] After an incubation period of 48 hrs, RNA levels of full length AR, the V7 variant, PSA and TMPRSS2 were measured.
After an incubation period of 48 hrs, RNA levels of full length AR, the V7 variant, PSA and TMPRSS2 were measured.
Cells were plated at 2,000 cells per well and cultured in CSS media for 16 hours. […] After 4 hrs, 1 nM DHT was added. […] After an incubation period of 48 hrs, RNA levels of AR, AR V7 variant, PSA and TMPRSS2 were measured.

TMPRSS2 mRNA = experiment: TMPRSS2 expression in C4-2B cells (Example 30); conditions: 48 hrs
Experimental: Cells were plated at 1,000 cells per well. […] ISIS 549148 was included as a negative control. […] After an incubation period of 48 hrs, RNA levels of AR, PSA and TMPRSS2 were measured.
Cells were plated at 2,000 cells per well and cultured in CSS media with 1 nM DHT. […] ISIS 549148 was included as a negative control. […] After an incubation period of 48 hrs, RNA levels of AR, PSA and TMPRSS2 were measured. In the absence of DHT, AR expression in C4-2 cells was 188%, PSA expression was 43% and TMPRSS2 expression was 27% compared to the untreated control.

cleaved PARP = experiment: Cleaved PARP western blot in VCaP cells
C4-2B cells = experiment: C4-2B cell proliferation, ASO in combination with MDV3100 (Example 21); conditions: for Proliferation (% untreated control) in C4-2B without MDV-3100: 5 days
Experimental: C4-2B cells were plated at 1,000 cells per well. […] ISIS 549148 was included as a negative control. […] After a treatment period of 5 days, the proliferative capacity of the cancer cells was measured with CellTiter 96® AQueous One Solution Cell Proliferation kit (Promega), following the manufacturer's instructions. […]

For “TGATTTAATGGTTGCA [ISIS 569236] (cEt/MOE gapmer chemistry, further chemistry not given here) [targets intron 1]”, the “Percent inhibition of PSA expression compared to the control group in 8 hours” value (“Percent inhibition … in 8 hours” below) ([1]; 0.04 μM) was 18%, the “Percent inhibition of PSA expression compared to the control group in 24 hours” value (“Percent inhibition … in 24 hours” below) ([1]; 0.04 μM) was 10% and the “Percent inhibition of PSA expression compared to the control group in 48 hours” value (“Percent inhibition … in 48 hours” for short) ([1]; 0.04 μM) was 4%. For the same sequence, the “Percent inhibition … in 8 hours” value ([1]; 0.2 μM) was 3%, the “Percent inhibition … in 24 hours” value ([1]; 0.2 μM) was 34% and the “Percent inhibition … in 48 hours” value ([1]; 0.2 μM) was 45%. The “Percent inhibition … in 8 hours” value ([1]; 1 μM) was 0%, the “Percent inhibition … in 24 hours” value ([1]; 1 μM) was 44% and the “Percent inhibition … in 48 hours” value ([1]; 1 μM) was 68%. The “Percent inhibition … in 8 hours” value ([1]; 5.0 μM) was 0%, the “Percent inhibition … in 24 hours” value ([1]; 5.0 μM) was 54% and the “Percent inhibition … in 48 hours” value ([1]; 5.0 μM) was 76%. For the same sequence, the PSA expression ([1]; time course) was “reduced PSA and TMPRSS2 expression in the cells relative to the control set at the 24 hr and 48 hr time points”, the “Percent expression of AR” value (AR mRNA; 0.04 μM) was 89% and the “Percent expression of AR” value (AR mRNA; 0.2 μM) was 82%. The “Percent expression of AR” value (AR mRNA; 1 μM) was 52%, the “Percent expression of AR” value (AR mRNA; 5.0 μM) was 23% and the “Percent expression of AR in C4-2 cells cultured in complete medium” value (from here on “Percent expression of AR … in complete medium”) (AR mRNA; 0.04 μM) was 72%. The “Percent expression of AR … in complete medium” value (AR mRNA; 0.2 μM) was 27%, the “Percent expression of AR … in complete medium” value (AR mRNA; 1 μM) was 11% and the “Percent expression of AR … in complete medium” value (AR mRNA; 5.0 μM) was 9%. For the same sequence, the “Apoptosis (% untreated control)” value (VCaP cells; 1.34 nM) was 176 % untreated control, the “Apoptosis (% untreated control)” value (VCaP cells; 4.0 nM) was 293 % untreated control and the “Apoptosis (% untreated control)” value (VCaP cells; 13.4 nM) was 402 % untreated control. The “Apoptosis (% untreated control)” value (VCaP cells; 40 nM) was 581 % untreated control, the “apoptosis of VCaP cells” value (VCaP cells) was “increased apoptosis of the cells in a dose dependent compared to the control” and the “Percent inhibition of AR V7 variant” value (AR V7 variant mRNA; CSS + DHT medium, 1.34 nM) was 37%. The “Percent inhibition of AR V7 variant” value (AR V7 variant mRNA; CSS + DHT medium, 4.0 nM) was 33%, the “Percent inhibition of AR V7 variant” value (AR V7 variant mRNA; CSS + DHT medium, 13.4 nM) was 48% and the “Percent inhibition of AR V7 variant” value (AR V7 variant mRNA; CSS + DHT medium, 40 nM) was 39%. The “Percent inhibition of AR V7 variant” value (AR V7 variant mRNA; complete medium, 1.34 nM) was 0%, the “Percent inhibition of AR V7 variant” value (AR V7 variant mRNA; complete medium, 4.0 nM) was 40% and the “Percent inhibition of AR V7 variant” value (AR V7 variant mRNA; complete medium, 13.4 nM) was 53%. For the same sequence, the “Percent inhibition of AR V7 variant” value (AR V7 variant mRNA; complete medium, 40 nM) was 80%, the “Percent inhibition of PSA expression” value (PSA mRNA; CSS + DHT medium, 1.34 nM) was 28% and the “Percent inhibition of PSA expression” value (PSA mRNA; CSS + DHT medium, 4.0 nM) was 49%. For the same sequence, the “Percent inhibition of PSA expression” value (PSA mRNA; CSS + DHT medium, 13.4 nM) was 70%, the “Percent inhibition of PSA expression” value (PSA mRNA; complete medium, 1.34 nM) was 0% and the “Percent inhibition of PSA expression” value (PSA mRNA; complete medium, 4.0 nM) was 17%. The “Percent inhibition of PSA expression” value (PSA mRNA; complete medium, 13.4 nM) was 25%, the “Percent inhibition of PSA expression” value (PSA mRNA; complete medium, 40 nM) was 7% and the “Percent inhibition of TMPRSS2 expression” value (TMPRSS2 mRNA; CSS + DHT medium, 0.04 μM) was 0%. The “Percent inhibition of TMPRSS2 expression” value (TMPRSS2 mRNA; CSS + DHT medium, 0.2 μM) was 6%, the “Percent inhibition of TMPRSS2 expression” value (TMPRSS2 mRNA; CSS + DHT medium, 1 μM) was 43% and the “Percent inhibition of TMPRSS2 expression” value (TMPRSS2 mRNA; CSS + DHT medium, 5.0 μM) was 59%. The “Percent inhibition of TMPRSS2 expression” value (TMPRSS2 mRNA; complete medium, 0.04 μM) was 33%, the “Percent inhibition of TMPRSS2 expression” value (TMPRSS2 mRNA; complete medium, 0.2 μM) was 59% and the “Percent inhibition of TMPRSS2 expression” value (TMPRSS2 mRNA; complete medium, 1 μM) was 69%. For the same sequence, the “Percent inhibition of TMPRSS2 expression” value (TMPRSS2 mRNA; complete medium, 5.0 μM) was 73%, the “cleaved PARP levels (western blot)” value (cleaved PARP) was “increased in a dose-dependent manner” and the “Proliferation (% untreated control) in C4-2B with 0.08 μM MDV-3100” value (C4-2B cells; ASO dose 0.04 μM + 0.08 μM MDV-3100) was 79 % untreated control. For the same sequence, the “Proliferation (% untreated control) in C4-2B with 0.4 μM MDV-3100” value (C4-2B cells; ASO dose 0.04 μM + 0.4 μM MDV-3100) was 63 % untreated control, the “Proliferation (% untreated control) in C4-2B with 2.0 μM MDV-3100” value (C4-2B cells; ASO dose 0.04 μM + 2.0 μM MDV-3100) was 45 % untreated control and the “Proliferation (% untreated control) in C4-2B with […] MDV-3100” value (C4-2B cells; ASO dose 0.04 μM + […] MDV-3100) was 74 % untreated control. For the same sequence, the “Proliferation (% untreated control) in C4-2B without MDV-3100” value (C4-2B cells; ASO dose 0.04 μM) was 72 % untreated control, the “Proliferation (% untreated control) in C4-2B with 0.08 μM MDV-3100” value (C4-2B cells; ASO dose 0.08 μM + 0.08 μM MDV-3100) was 89 % untreated control and the “Proliferation (% untreated control) in C4-2B with 0.4 μM MDV-3100” value (C4-2B cells; ASO dose 0.08 μM + 0.4 μM MDV-3100) was 90 % untreated control. The “Proliferation (% untreated control) in C4-2B with 2.0 μM MDV-3100” value (C4-2B cells; ASO dose 0.08 μM + 2.0 μM MDV-3100) was 44 % untreated control, the “Proliferation (% untreated control) in C4-2B with […] MDV-3100” value (C4-2B cells; ASO dose 0.08 μM + […] MDV-3100) was 107 % untreated control and the “Proliferation (% untreated control) in C4-2B without MDV-3100” value (C4-2B cells; ASO dose 0.08 μM) was 100 % untreated control. The “Proliferation (% untreated control) in C4-2B with 0.08 μM MDV-3100” value (C4-2B cells; ASO dose 0.2 μM + 0.08 μM MDV-3100) was 51 % untreated control, the “Proliferation (% untreated control) in C4-2B with 0.4 μM MDV-3100” value (C4-2B cells; ASO dose 0.2 μM + 0.4 μM MDV-3100) was 48 % untreated control and the “Proliferation (% untreated control) in C4-2B with 2.0 μM MDV-3100” value (C4-2B cells; ASO dose 0.2 μM + 2.0 μM MDV-3100) was 48 % untreated control. The “Proliferation (% untreated control) in C4-2B with […] MDV-3100” value (C4-2B cells; ASO dose 0.2 μM + […] MDV-3100) was 65 % untreated control, the “Proliferation (% untreated control) in C4-2B without MDV-3100” value (C4-2B cells; ASO dose 0.2 μM) was 63 % untreated control and the “Proliferation (% untreated control) in C4-2B with 0.08 μM MDV-3100” value (C4-2B cells; ASO dose 1.0 μM + 0.08 μM MDV-3100) was 43 % untreated control. For the same sequence, the “Proliferation (% untreated control) in C4-2B with 0.4 μM MDV-3100” value (C4-2B cells; ASO dose 1.0 μM + 0.4 μM MDV-3100) was 39 % untreated control, the “Proliferation (% untreated control) in C4-2B with 2.0 μM MDV-3100” value (C4-2B cells; ASO dose 1.0 μM + 2.0 μM MDV-3100) was 46 % untreated control and the “Proliferation (% untreated control) in C4-2B with […] MDV-3100” value (C4-2B cells; ASO dose 1.0 μM + […] MDV-3100) was 55 % untreated control. The “Proliferation (% untreated control) in C4-2B without MDV-3100” value (C4-2B cells; ASO dose 1.0 μM) was 51 % untreated control, the “synergy with MDV3100” value (C4-2B cells; C4-2B cells) was “synergistic with MDV3100” and the “cell proliferation inhibited, combination” value (C4-2B cells; C4-2B cells, 0.2 μM ASO in combination with 0.08 μM MDV3100) was 52%. For the same sequence, the “inhibited cell proliferation, ASO alone” value (C4-2B cells; C4-2B cells, ASO alone at 0.2 μM) was 37%.
